Converted amounts (≈) assume the structure as drawn.

The MIC is the lowest concentration found to suppress growth. By zone of inhibition is commonly meant the size of the clear area around the sample on an inoculated plate.

Format in all cases: cell-based
The test system of assay [1] is E. coli NCTC 13353 (CTX-M15, OXA-1). Kind of assay: Antibacterial activity (MIC), agar dilution per CLSI. To be noted: Escherichia coli, NCTC13353; E. coli NCTC 13353 (CTX-M15, OXA-1); read-out: MIC. The procedure: (§1) The biological activity of representative compounds according to the invention against various bacterial strains was investigated. In a typical study, overnight grown bacterial cultures were diluted appropriately and inoculated on the agar media containing doubling dilutions of the test compounds. Observations for growth or no growth was performed after 16-20 hours of incubation at 35±2° C. in the ambient air. The overall procedure was performed as per Clinical and Laboratory Standards Institute (CLSI) recommendations, (Clinical and Laboratory Standards Institute (CLSI), Performance Standards for Antimicrobial Susceptibility Testing, 20th Informational Supplement, M07-A9, Volume 32, No. 2, 2012). Molten Mueller Hinton Agar (BD, USA) containing serial dilutions of each antibacterial agent were poured on to the plates and allowed to solidify. Appropriate suspensions from the freshly grown cultures were prepared in normal saline so that about 10^4 CFU/spot of the organism was delivered on to the drug containing agar plates using automated multipoint inoculator (Mast, UK). The plates were incubated in Biochemical oxygen demand (BOD) incubator at 37° C. for 18 hours and then examined for growth.
(§2) The strains selected for study included E. coli NCTC 13353 producing CTX-M15 and OXA-1 beta-lactamase enzymes; K. pneumoniae H521 producing KPC, SHV, TEM beta-lactamase enzymes; and K. pneumoniae S48 producing NDM, SHV, TEM beta-lactamase enzymes. The activities are expressed as Minimum Inhibitory Concentrations (MICs) (mcg/ml).
(§3) The activities are expressed as Minimum Inhibitory Concentrations (MICs) (mcg/ml).
On the technique in general: In agar dilution, organisms are placed on agar that contains the substance at set levels.

The subject of assay [2] is K. pneumoniae H521 (KPC, SHV, TEM). The description is as above. Particulars: Klebsiella pneumoniae; K. pneumoniae H521 (KPC, SHV, TEM); read-out: MIC. On the procedure:
as §1, §2, §3

For a further assay, the system named is E. coli NCTC 13353. Kind of assay: Zone of inhibition, agar well, with and without ceftazidime. To be noted: E. coli NCTC 13353. On the procedure: In a typical experiment, two sets of plates containing growth media (Molten Mueller Hilton Agar) and bacterial strains were prepared. One set of plates was taken as control (without ceftazidime) and other set contained ceftazidime. The media was allowed to solidify and wells were punched later, into which varying concentrations of compounds according to the invention were poured. A two-fold serial dilution range of each of the compounds according to invention was prepared and 50 μl of each of the dilution was added into the punched well. The plates were then incubated at 37° C. for 18 hours in BOD incubator and diameters of zone of inhibition were measured after the completion of the incubation.
The Table 6 provides the antibacterial activity of the combination comprising compounds according to invention and ceftazidime. The compounds according to invention were tested at 0.12, 0.25, 0.5 and 1 μg/well.

As for `O=C(C[C@@H]1CCCN1)NNC(=O)[C@@H]1CC[C@@H]2CN1C(=O)N2OS(=O)(=O)O` [Example 1, (2S,5R)-Sulfuric acid mono-{2-[N′-(2-(S)-pyrrolidin-2-yl-acetyl)-hydrazinocarbonyl]-7-oxo-1,6-diaza-bicyclo[3.2.1]oct-6-yl}ester], the minimal inhibitory concentration (MIC) in assay [1] and in assay [2] was 0.5 µg/mL (≈ 1.28 µM) in each case. For the same compound, the “Diameter of Zone of Inhibition, Compound + Ceftazidime (10 μg/ml)” value is on record as 26 mm in the assay on E. coli NCTC 13353 (compound 0.25 μg/well + Ceftazidime 10 μg/ml), 28 mm in the assay with E. coli NCTC 13353 (compound 0.5 μg/well + Ceftazidime 10 μg/ml), 31 mm in the assay with E. coli NCTC 13353 (compound 1 μg/well + Ceftazidime 10 μg/ml) and 22 mm with E. coli NCTC 13353 (compound […] + Ceftazidime 10 μg/ml). Further, the zone of inhibition at […] in the assay on E. coli NCTC 13353 (Escherichia coli, NCTC13353, compound alone, 0.12 μg/well, read-out: Diameter of Zone of Inhibition, Compound) stood at 11.5 mm. In addition, in the assay on E. coli NCTC 13353 (Escherichia coli, NCTC13353, compound alone, 0.25 μg/well, read-out: Diameter of Zone of Inhibition, Compound), the zone of inhibition at 0.25 µg/disc is 14 mm. In addition, the zone of inhibition at 0.5 µg/disc in the assay on E. coli NCTC 13353 (Escherichia coli, NCTC13353, compound alone, 0.5 μg/well, read-out: Diameter of Zone of Inhibition, Compound) was 15 mm. Further, in the assay with E. coli NCTC 13353 (Escherichia coli, NCTC13353, compound alone, 1 μg/well, read-out: Diameter of Zone of Inhibition, Compound), the zone of inhibition at 1 µg/disc is 16.5 mm.

Values taken from patent US9657022B2, “7-OXO-1,6-diazabicyclo[3.2.1]octane derivatives and their use as antibacterial agents” (WOCKHARDT LIMITED, priority 2014, dated 2017).
